Like-named read-outs stand apart in the source and are kept apart here.
What was measured:
[1] = literature: W. Nimmich, Pharmazie, 19, (4), 281 (1964); cited from earlier work
[2] = system: Sensitivity of the Mouse in the Hot Plate Test; assay: Hot plate test (sensitivity of the mouse, increase of reaction time); assay type: in vivo; conditions: po, read-out: ED100 (dose which increased the time of reaction by 100%)
Experimental: The test substances were administered as trituration in 1% methyl cellulose (0.1 ml/10 g of mouse) by means of an oesophageal tube.
Before treatment with the test substances, the animals were twice put on the hot plate at an interval of 30 minutes, whereby their individual times of reaction were measured. After treatment with a test substance, the times of reaction of the animals were again measured in an interval of 30 minutes.

[3] = system: Pain of Inflammation on the Back Paw of the Rat; assay: Randall-Selitto test (pain of inflammation, yeast oedema, back paw of the rat); assay type: in vivo; conditions: po, 0.75 h, read-out: ED50 (dose which increased the pain threshold by 50%)
Experimental: The activity against the pain caused by inflammation was tested according to the method of RANDALL-SELITTO [Arch. Int. […] After a further 45 minutes the pain threshold was determined in the animals treated with the test compound and in the control animals treated only with the vehicle.

[4] = system: body temperature of Chbb:THOM-rats; assay: Antipyretic activity (rectal body temperature of rats); assay type: in vivo, rat; conditions: for ED (-1.5 degC): Rattus norvegicus, po, read-out: ED-1.5° C. (dose which decreases the body temperature by 1.5° C.)
Experimental: The test substances were administered as a trituration in a 1% methyl cellulose in portions of 1.0 ml/100 g of animal using an oesophageal tube.
From the values for the average maximum decline of temperature, which were gained after the administration of the different doses of the test substances, and after a linear regression analysis according to LINDER, an ED-1.5° C. was calculated with the confidence limits according to FIELLER as the dose which decreases the body temperature by 1.5° C.

methemoglobin = assay: Determination of the level of methemoglobin in the cat; assay type: in vivo; conditions: oesophageal tube
Experimental: The test substances were administered to cats of both sexes having an average body weight of 2.5 kg, as a trituration in 1% methyl cellulose using an oesophageal tube (2 ml/kg; the oesophageal tube was cleared in situ by aqua bidestillata). After a single application blood-tests were taken by heart-punctuation at different times, that is, at 3 hours, 5 hours, 24 hours, and 48 hours after administration. The photometric registration of the spectrum of hemoglobin as well as the determination of the content of hemoglobin in comparison to controls were effected according to the method of LEMBERG and LEGGE [Hematin Compounds and Bile Pigments, Interscience Publishers, New York (1949)].

Acute toxicity in mice = conditions: mouse, in vivo, po; Chbb-NMRI (SPF)-mice of both sexes, oesophageal tube, deaths within 14 days
Experimental: The acute toxicity was determined in Chbb-NMRI (SPF)-mice of both sexes, having an average body weight of 20 grams. The test compounds were administered as a trituration in 1% methyl cellulose (0.5 ml/10 g of animal) by means of an oesophageal tube. The calculation of the LD50 values was effected according to the method of LITCHFIELD and WILCOXON [J. Pharmacol. Exp. Ther., 96. 99 (1949)], based on the percentage of animals which died within 14 days after administration of different doses.

[5] = male Chbb:NMRI (SPF)-mice, oesophageal tube, hot plate 52° C.
[6] = male Chbb:THOM-rats, oesophageal tube, 45 minutes after administration
[7] = Chbb:THOM-rats, oesophageal tube
[8] = 100 mg/kg, 3 hours after administration
[9] = 100 mg/kg, 5 hours after administration
[10] = 100 mg/kg, 24 hours after administration
[11] = 200 mg/kg, 3 hours after administration
[12] = 200 mg/kg, 5 hours after administration
[13] = 200 mg/kg, 24 hours after administration
[14] = 50 mg/kg, 3 hours after administration
[15] = 50 mg/kg, 5 hours after administration
[16] = 50 mg/kg, 24 hours after administration

Structure (SMILES) | ED100 [2, 5] [mg/kg] | ED50 [3, 6] [mg/kg] | ED (-1.5 degC) [4, 7] [mg/kg] | Average value of methemoglobin (methemoglobin; [8]) | Average value of methemoglobin (methemoglobin; [9]) | Average value of methemoglobin (methemoglobin; [10]) | Average value of methemoglobin (methemoglobin; [11]) | Average value of methemoglobin (methemoglobin; [12]) | Average value of methemoglobin (methemoglobin; [13]) | LD50 at 336 h (Acute toxicity in mice) [mg/kg] | Average value of methemoglobin (methemoglobin; [14]) | Average value of methemoglobin (methemoglobin; [15]) | Average value of methemoglobin (methemoglobin; [16]) | also measured
O=c1[nH]c2ccccc2s1 [Example 2, Benzothiazol-2(3H)-one] | – | – | – | – | – | – | – | – | – | – | – | – | – | Antimicrobial and fungistatic activity [1]: antimicrobial and fungistatic acitivity
Cc1ccc2[nH]c(=O)sc2c1 [C, 6-Methyl-benzothiazol-2(3H)-one] | 144 | 54.4 | 30.9 | 4.0 % of total hemoglobin | 2.4 % of total hemoglobin | 0.1 % of total hemoglobin | 13.6 % of total hemoglobin | 13.7 % of total hemoglobin | 0.4 % of total hemoglobin | 2160 | – | – | – | –
COc1ccc2nc(O)sc2c1 [B, 6-Methoxy-benzothiazol-2(3H)-one] | 122 | 142 | 66.8 | 4.6 % of total hemoglobin | 3.5 % of total hemoglobin | 0.0 % of total hemoglobin | 8.1 % of total hemoglobin | 11.7 % of total hemoglobin | 0.0 % of total hemoglobin | 1280 | – | – | – | –
CCOc1ccc2[nH]c(=O)sc2c1 [A, 6-Ethoxy-benzothiazol-2(3H)-one] | 154 | 64.3 | 84.3 | 0.4 % of total hemoglobin | 0.1 % of total hemoglobin | 0.3 % of total hemoglobin | 1.0 % of total hemoglobin | 0.4 % of total hemoglobin | 0.5 % of total hemoglobin | 1200 | 0.3 % of total hemoglobin | 0.5 % of total hemoglobin | 1.1 % of total hemoglobin | –
CCOc1ccc(NC(C)=O)cc1 [D, Phenacetin, reference compound] | – | – | – | 32.0 % of total hemoglobin | 35.8 % of total hemoglobin | 0.5 % of total hemoglobin | 36.0 % of total hemoglobin | 46.6 % of total hemoglobin | 15.4 % of total hemoglobin | 1460 | 19.6 % of total hemoglobin | 9.8 % of total hemoglobin | 0.5 % of total hemoglobin | ED100 [2]: 328 mg/kg; ED50 [3]: 274 mg/kg; ED (-1.5 degC) [4]: 34.4 mg/kg; Antipyretic activity (in words) ([4]; rat, in vivo): an antipyretic activity; Average value of methemoglobin (methemoglobin; 25 mg/kg, 3 hours after administration): 1.9 % of total hemoglobin; Average value of methemoglobin (methemoglobin; 25 mg/kg, 5 hours after administration): 0.4 % of total hemoglobin; Average value of methemoglobin (methemoglobin; 200 mg/kg, 48 hours after administration): 1.1 % of total hemoglobin

From patent publication US4328235A, “Suppressing pain with benzothiazol-2(3H)-ones” (Boehringer Ingelheim GmbH, priority 1979, dated 1982)
